The values below come from PMC8217266 (Clinical Pharmacology and Therapeutics, 2021).

The target in data set [1] is T1, BCRP (Homo sapiens, UniProt Q9UNQ0).
T1 sequence (Q9UNQ0 1-655): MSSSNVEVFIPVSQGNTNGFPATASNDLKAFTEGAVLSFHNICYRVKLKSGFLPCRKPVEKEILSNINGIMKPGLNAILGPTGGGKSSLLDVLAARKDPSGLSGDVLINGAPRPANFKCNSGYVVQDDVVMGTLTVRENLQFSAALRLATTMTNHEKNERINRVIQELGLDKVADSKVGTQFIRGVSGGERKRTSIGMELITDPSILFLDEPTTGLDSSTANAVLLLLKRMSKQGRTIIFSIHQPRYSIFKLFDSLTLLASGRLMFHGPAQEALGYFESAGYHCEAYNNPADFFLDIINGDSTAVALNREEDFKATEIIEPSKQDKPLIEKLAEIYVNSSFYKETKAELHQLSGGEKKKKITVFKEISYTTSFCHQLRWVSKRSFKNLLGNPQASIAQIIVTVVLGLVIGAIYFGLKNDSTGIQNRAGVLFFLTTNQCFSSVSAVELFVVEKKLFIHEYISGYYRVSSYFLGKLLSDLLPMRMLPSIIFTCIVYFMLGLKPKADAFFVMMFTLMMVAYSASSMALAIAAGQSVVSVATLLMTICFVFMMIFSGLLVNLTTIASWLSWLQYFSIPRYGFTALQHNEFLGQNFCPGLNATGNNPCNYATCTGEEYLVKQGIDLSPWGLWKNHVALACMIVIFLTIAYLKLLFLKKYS
As to conditions: cited from earlier work.

Data set [2] has as its system transporters at major organ sites. Put plainly: Prediction of transporter-mediated inhibition / DDI potential. Details: species or system human. As to conditions: of 11 transporters; FDA criteria.
Data set [3] deals with T2, human OAT3 (Homo sapiens, UniProt Q8TCC7).
T2 sequence (Q8TCC7 1-542): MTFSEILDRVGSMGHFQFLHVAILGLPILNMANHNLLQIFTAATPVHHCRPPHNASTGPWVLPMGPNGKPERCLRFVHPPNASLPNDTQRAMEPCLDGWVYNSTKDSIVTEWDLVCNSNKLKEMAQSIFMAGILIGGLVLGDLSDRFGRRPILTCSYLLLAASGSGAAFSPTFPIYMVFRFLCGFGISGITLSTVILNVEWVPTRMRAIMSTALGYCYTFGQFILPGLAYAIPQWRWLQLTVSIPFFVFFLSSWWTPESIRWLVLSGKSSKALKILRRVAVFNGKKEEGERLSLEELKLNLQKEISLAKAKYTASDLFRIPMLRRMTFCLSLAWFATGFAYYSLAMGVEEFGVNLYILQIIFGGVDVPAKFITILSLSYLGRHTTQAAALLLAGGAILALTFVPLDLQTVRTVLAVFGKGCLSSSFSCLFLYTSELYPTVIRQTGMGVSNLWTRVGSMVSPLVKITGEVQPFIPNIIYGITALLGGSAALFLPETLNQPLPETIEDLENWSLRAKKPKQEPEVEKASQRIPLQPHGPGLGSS
As to conditions: human.

Data set [4] concerns the target T3, human OCT1 (Homo sapiens, UniProt O15245).
T3 sequence (O15245 1-554): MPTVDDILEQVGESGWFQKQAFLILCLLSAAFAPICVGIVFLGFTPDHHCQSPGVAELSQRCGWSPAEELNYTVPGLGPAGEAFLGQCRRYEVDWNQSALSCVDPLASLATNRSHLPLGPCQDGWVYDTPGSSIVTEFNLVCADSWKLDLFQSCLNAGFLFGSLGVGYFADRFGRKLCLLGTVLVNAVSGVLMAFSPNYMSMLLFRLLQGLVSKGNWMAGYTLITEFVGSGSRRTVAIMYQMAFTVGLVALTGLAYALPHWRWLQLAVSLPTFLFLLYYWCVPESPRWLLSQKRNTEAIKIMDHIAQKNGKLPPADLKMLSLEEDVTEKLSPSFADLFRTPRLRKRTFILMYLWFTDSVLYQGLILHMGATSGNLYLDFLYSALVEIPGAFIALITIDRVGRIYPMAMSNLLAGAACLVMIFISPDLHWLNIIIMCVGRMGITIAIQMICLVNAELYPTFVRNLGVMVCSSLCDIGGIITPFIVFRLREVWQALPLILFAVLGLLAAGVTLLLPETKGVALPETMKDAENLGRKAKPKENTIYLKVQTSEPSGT
In words: cell-based.

The target in data set [5] is T4, human MATE1 (Homo sapiens, UniProt Q96FL8).
T4 sequence (Q96FL8 1-570): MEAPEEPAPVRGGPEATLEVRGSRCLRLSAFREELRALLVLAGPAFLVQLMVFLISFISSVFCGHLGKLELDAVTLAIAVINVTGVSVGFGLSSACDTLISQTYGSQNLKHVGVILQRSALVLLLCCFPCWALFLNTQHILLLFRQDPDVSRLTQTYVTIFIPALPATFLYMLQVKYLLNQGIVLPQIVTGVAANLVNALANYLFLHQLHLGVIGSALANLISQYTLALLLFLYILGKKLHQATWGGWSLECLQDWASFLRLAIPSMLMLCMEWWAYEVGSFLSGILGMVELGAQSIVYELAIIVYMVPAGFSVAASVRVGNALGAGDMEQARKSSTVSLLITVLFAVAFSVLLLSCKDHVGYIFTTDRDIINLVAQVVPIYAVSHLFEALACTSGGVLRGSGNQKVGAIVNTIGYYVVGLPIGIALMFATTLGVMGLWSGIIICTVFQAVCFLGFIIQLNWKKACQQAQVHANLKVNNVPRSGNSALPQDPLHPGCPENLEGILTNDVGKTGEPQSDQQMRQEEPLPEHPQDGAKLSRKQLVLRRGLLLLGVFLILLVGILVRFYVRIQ
Put plainly: cell-based.

Data set [6] addresses human MATE2 (Homo sapiens, UniProt Q86VL8). Put plainly: cell-based.
The target of data set [7] is T5, human OAT1 (Homo sapiens, UniProt Q4U2R8).
T5 sequence (Q4U2R8 1-563): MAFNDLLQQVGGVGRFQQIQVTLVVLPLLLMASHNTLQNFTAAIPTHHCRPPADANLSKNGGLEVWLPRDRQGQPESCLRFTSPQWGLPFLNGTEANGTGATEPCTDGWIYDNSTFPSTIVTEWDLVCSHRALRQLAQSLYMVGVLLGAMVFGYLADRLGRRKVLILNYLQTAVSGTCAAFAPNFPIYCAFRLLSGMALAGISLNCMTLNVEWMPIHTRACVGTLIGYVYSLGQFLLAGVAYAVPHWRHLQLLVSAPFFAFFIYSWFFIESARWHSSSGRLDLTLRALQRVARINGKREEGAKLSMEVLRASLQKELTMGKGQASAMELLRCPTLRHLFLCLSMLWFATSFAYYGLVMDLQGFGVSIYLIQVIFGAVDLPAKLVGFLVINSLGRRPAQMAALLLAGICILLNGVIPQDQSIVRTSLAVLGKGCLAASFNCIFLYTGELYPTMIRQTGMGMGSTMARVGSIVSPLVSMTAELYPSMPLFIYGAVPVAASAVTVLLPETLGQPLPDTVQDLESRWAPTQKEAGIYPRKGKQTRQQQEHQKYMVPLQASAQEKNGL
In words: cell-based.

Data set [8] has as its target T2, human OAT3. Put plainly: cell-based.
Data set [9] deals with P-gp (Homo sapiens, UniProt P08183). In words: biochemical.
In data set [10] the target is T1, BCRP. Put plainly: biochemical.
In data set [11] the target is T3, human OCT1. As to conditions: human.
Data set [12] has as its target T6, human OATP2B1 (Homo sapiens, UniProt O94956).
T6 sequence (O94956 1-709): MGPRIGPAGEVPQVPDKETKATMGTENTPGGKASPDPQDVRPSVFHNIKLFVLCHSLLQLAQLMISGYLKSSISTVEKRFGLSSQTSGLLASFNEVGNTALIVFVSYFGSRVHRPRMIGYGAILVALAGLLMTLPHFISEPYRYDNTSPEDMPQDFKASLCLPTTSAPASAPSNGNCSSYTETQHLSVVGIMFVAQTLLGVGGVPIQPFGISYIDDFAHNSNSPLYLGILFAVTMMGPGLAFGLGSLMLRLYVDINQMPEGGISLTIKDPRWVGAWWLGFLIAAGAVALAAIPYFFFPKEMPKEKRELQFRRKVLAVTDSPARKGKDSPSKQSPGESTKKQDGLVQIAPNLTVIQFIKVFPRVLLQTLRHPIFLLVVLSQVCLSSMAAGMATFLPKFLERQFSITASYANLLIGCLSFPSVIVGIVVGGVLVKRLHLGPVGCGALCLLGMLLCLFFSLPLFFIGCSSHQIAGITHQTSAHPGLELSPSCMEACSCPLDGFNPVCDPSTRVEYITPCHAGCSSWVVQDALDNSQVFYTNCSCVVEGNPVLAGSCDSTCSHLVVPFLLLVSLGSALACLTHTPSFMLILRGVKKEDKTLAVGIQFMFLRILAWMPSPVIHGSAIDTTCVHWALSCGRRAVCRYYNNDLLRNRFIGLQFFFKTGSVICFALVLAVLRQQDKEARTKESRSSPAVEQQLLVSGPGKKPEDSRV
In words: cell-based. As to conditions: IC50 OATP2B1, experimental, mean ± SD; stable cells; substrate ES.

In data set [13] the target is T7, human OATP1B1 (Homo sapiens, UniProt Q9Y6L6).
T7 sequence (Q9Y6L6 1-691): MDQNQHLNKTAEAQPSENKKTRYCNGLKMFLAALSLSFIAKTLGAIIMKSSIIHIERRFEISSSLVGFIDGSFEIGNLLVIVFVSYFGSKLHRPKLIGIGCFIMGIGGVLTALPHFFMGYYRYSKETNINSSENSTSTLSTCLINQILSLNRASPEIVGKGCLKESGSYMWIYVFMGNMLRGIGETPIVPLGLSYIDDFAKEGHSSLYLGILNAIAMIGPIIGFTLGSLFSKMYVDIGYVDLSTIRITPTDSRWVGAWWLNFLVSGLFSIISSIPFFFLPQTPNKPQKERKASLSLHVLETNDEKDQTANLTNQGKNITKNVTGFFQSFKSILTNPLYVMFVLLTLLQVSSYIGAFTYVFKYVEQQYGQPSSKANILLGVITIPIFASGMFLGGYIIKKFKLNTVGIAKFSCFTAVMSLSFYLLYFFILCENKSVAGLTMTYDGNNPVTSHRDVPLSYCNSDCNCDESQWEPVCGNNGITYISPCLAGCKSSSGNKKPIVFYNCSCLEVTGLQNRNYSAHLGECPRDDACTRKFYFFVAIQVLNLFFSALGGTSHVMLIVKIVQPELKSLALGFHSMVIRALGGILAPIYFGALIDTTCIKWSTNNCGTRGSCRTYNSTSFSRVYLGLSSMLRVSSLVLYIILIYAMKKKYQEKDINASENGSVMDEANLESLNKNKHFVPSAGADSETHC
As to conditions: inhibits EG at one-tenth (or lower) the concentration that inhibits ES.

What is called IC50 is the midpoint of a concentration-inhibition curve. Read a low IC50 as greater potency in that assay.

Marks after values point to notes of the source that are not given here.

Chain of P-gp (P08183 whole entry): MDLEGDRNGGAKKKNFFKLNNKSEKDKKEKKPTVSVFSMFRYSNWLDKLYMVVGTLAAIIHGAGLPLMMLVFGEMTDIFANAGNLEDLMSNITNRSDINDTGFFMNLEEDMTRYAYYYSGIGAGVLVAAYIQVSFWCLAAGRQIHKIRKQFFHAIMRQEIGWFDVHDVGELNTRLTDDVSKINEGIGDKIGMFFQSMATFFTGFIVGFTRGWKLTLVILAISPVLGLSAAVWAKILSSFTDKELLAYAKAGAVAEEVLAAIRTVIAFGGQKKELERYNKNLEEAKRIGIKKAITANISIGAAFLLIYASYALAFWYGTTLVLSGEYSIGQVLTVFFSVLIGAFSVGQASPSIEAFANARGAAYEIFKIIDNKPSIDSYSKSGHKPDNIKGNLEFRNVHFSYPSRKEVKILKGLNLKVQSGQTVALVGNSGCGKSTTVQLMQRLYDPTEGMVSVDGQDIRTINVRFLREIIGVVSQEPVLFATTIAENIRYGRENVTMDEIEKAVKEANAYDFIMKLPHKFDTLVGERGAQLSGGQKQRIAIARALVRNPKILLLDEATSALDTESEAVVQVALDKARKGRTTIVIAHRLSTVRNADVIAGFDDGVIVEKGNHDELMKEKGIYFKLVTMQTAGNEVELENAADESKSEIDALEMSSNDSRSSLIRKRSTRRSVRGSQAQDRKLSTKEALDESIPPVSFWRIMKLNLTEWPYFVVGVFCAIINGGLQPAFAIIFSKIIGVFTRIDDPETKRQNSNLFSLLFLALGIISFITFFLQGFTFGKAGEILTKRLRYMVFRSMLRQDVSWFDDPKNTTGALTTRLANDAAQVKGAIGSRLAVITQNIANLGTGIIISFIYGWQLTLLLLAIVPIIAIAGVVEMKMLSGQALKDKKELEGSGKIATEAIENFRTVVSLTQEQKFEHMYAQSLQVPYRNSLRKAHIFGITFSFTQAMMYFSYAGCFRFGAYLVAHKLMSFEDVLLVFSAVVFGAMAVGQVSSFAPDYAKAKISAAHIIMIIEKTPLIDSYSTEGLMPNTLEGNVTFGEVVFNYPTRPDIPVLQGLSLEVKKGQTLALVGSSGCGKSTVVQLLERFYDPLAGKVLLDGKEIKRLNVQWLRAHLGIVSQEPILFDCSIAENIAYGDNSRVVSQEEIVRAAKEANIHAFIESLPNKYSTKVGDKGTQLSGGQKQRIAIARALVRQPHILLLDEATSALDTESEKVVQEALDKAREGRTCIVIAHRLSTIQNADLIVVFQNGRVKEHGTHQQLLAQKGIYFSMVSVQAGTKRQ
Chain of human MATE2 (Q86VL8 1-566 isoform Q86VL8-3): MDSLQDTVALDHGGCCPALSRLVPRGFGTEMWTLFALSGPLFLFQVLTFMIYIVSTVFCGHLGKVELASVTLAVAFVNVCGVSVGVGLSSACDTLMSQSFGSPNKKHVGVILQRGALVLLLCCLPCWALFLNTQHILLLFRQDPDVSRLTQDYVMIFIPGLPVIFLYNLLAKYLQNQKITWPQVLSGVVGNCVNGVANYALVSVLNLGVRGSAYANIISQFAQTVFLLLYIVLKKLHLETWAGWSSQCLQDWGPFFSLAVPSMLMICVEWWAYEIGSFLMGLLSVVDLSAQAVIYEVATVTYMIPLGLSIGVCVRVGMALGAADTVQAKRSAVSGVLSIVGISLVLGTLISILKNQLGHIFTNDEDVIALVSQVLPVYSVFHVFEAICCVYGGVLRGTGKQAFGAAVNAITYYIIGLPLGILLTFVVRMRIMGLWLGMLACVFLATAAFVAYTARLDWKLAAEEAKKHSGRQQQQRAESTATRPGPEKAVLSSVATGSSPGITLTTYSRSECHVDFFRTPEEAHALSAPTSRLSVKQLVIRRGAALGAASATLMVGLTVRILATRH

As to `CN1CC(=O)N2[C@H](c3ccc4c(c3)OCO4)c3[nH]c4ccccc4c3C[C@@H]2C1=O` [tadalafil], in data set [1], the “inhibition of BCRP (in words)” value is given as “weak inhibitors of BCRP”.
`NC(=O)c1nc(F)c[nH]c1=O` [Favipiravir]: the “No. of transporters at major organ sites inhibited at clinical concentrations” value in data set [2] is 3. Further, in data set [3], the “Cu,max/IC50 OAT3” value is reported as 3.21. In addition, the half-inhibitory concentration (IC50) in data set [4] was more than 100 µM; in data set [5], more than 100 µM; in data set [6], more than 100 µM; in data set [7], 52 µM; in data set [8] it was 84.2 ± 19.5 µM; in data set [9] it was 55 µM. This compound registered an IC50 in data set [10] of more than 100 µM.
For the compound `COc1ccc2cc1Oc1ccc(cc1)C[C@H]1c3cc(c(OC)cc3CCN1C)Oc1c(OC)c(OC)cc3c1[C@H](C2)N(C)CC3` [Tetrandrine], the “No. of transporters at major organ sites inhibited at clinical concentrations” value in [2] is listed as 1. The “Iu,in,max/IC50 OCT1” value in [11] amounted to 0.02. Also, the IC50 was 8.6 µM in data set [4]; 1.2 ± 0.2 µM in data set [5]; more than 10 µM in [6]; more than 10 µM in data set [7]; more than 10 µM in data set [8]; 3.8 ± 1.1 µM in data set [9]. Also, the half-maximal inhibitory concentration (IC50) in [10] is more than 10 µM.
Regarding `Cc1oncc1C(=O)Nc1ccc(C(F)(F)F)cc1` [Leflunomide], in data set [2], the “No. of transporters at major organ sites inhibited at clinical concentrations” value is 2. For the same compound, the half-maximal inhibitory concentration (IC50) in data set [12] is 81.9 ± 36.1 µM; in data set [4], more than 100 µM; in data set [5] it was 9.5 ± 5.5 µM; in data set [7], more than 100 µM; in [9], more than 100 µM.
For the compound `CCCCc1nc(Cl)c(CO)n1Cc1ccc(-c2ccccc2-c2nn[nH]n2)cc1` [Losartan], in data set [2], the “No. of transporters at major organ sites inhibited at clinical concentrations” value is listed as 4. In addition, the “potency difference of the inhibitor for [3H]-EG vs [3H]-ES as OATP1B1 probes” value in data set [13] is more than 10 fold. In addition, in data set [3], the “Cu,max/IC50 OAT3” value was 0.02 ^a. For the same compound, the concentration for half-maximal inhibition (IC50) is 2.5 ± 0.7 µM in [12]; more than 100 µM in [4]; more than 100 µM in data set [6]; more than 100 µM in data set [9]; 4.8 ± 1.1 µM in data set [10].
Consider `O=C1CCC(N2C(=O)c3ccccc3C2=O)C(=O)N1` (stereo not shown) [Thalidomide], for which the “No. of transporters at major organ sites inhibited at clinical concentrations” value in [2] is on record as 1. For the same compound, the “Cu,max/IC50 OAT3” value in [3] came out at 0.08. Besides, the IC50 in data set [4] is more than 100 µM; in data set [5], more than 100 µM; in data set [6], more than 100 µM; in data set [7], more than 100 µM; in [8] it was 54.6 ± 2.4 µM; in data set [9], 65 µM. This compound also displayed an IC50 in data set [10] of more than 100 µM.
As for `CCCc1nc(C)c2c(=O)[nH]c(-c3cc(S(=O)(=O)N4CCN(CC)CC4)ccc3OCC)nn12` [vardenafil], in [1], the “inhibition of BCRP (in words)” value was “weak inhibitors of BCRP”.
